We go through 11 molecules from ChEMBL document CHEMBL1125521, “Oxygen isosteric derivatives of 3-(3-hydroxyphenyl)-N-n-propylpiperidine” (J Med Chem, 1992).

One assay concerns the target D(2) dopamine receptor (Rattus norvegicus, UniProt P61169). The assay can be described thus: Ability to displace [3H]spiroperidol, from dopamine receptor D2 specific binding sites of rat striatal membranes. Also on record: species or system Striatum, Membrane.
For assay [1], the target named is D(2) dopamine receptor (Rattus norvegicus) (UniProt P61169). The assay can be described thus: Displacement of [3H]spiroperidol from dopamine receptor D2 binding sites of rat striatal membranes; inactive. It counts as cell membranes. The settings on record: Membrane. (In general: Loss of bound radioactivity is the signal in a displacement assay; it reports binding, not function.)

For assay [2], the target named is Serotonin 1 (5-HT1) receptor (Rattus norvegicus, UniProt P28564+P30940+P19327+P28565). The assay can be described thus: Compound was evaluated for the inhibition of [3H]5-HT (concentration of 12 nM) specific binding to rat hippocampus. It counts as tissue-based.

Calls of active or inactive are those of the source. The rule behind the calls is not given here.

Sequence of D(2) dopamine receptor (Rattus norvegicus) (P61169 whole entry): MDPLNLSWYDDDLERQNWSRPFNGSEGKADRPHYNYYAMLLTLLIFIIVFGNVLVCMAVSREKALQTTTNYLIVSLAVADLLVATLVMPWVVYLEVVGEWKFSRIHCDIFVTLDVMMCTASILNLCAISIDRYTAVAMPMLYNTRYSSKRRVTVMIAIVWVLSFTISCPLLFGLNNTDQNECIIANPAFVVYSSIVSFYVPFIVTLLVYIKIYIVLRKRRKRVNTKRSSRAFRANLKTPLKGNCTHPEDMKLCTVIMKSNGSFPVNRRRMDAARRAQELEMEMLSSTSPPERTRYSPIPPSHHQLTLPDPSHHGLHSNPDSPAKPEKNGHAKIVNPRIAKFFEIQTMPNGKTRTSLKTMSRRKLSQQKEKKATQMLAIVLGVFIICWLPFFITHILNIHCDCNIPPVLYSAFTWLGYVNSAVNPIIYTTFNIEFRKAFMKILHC
Sequence of D(2) dopamine receptor (P61169 whole entry): as above

Turning to `CCCN1CCCC(c2ccccc2OC)C1` (stereo not given), at D(2) dopamine receptor, the IC50 – broadly, the point on the concentration scale where inhibition reaches its midpoint – stood at 8 µM. For the molecule `CCCN1CCOC(c2cccc(O)c2)C1` (stereo not given), the result in assay [1] was inactive. As for `CCCN1CCOC(c2ccsc2)C1` (stereo not given), the result in assay [1] was inactive.

Consider `CCCN1CCOC(c2ccccc2O)C1` (stereo not given), for which the result in assay [1] was inactive. Take `CCCN1CCOC(c2cccc(OC)c2)C1` (stereo not given): in assay [2], the IC50 turned out to be 1 µM. The result in assay [1] was inactive. Taken in the same sequence, the figures for `CCCN1CCOC(c2ccccc2Cl)C1` (stereo not given) were 3 µM and “inactive”. As for `CCCN1CCOC(c2cccs2)C1` (stereo not given), the outcome in assay [1] was inactive. Still for that read-out and setting: under `CCCN1CCOC(c2cccc([N+](=O)[O-])c2)C1` (stereo not given) stands “inactive”.

As to `CCCN1CCOC(c2cccc(Cl)c2)C1` (stereo not given), the IC50 in assay [2] is 5 µM. Besides, the outcome in assay [1] was inactive.

Molecule `CCCN1CCOC(c2ccccc2OC)C1` (stereo not given) had an IC50 in assay [2] of 1 µM. In addition, in assay [1], the outcome was inactive. The molecule `CCCN1CCCC(c2ccccc2O)C1` (stereo not given) registered an IC50 on D(2) dopamine receptor of 7 µM.
